Measurements taken from US8563586B2, “1,(3,)5-substituted imidazoles, their use in the treatment of hypertension and methods for their preparation” (Eldrug S.A., priority 2007, dated 2013).
Entries after “also recorded” stand apart in the source; their conditions may differ.

Key:
[1] = test system: anesthetized rabbits made hypertensive by AII infusion; test: In vivo: anesthetized rabbits made hypertensive by AII infusion, IV boluses of compound; set-up: species or system New Zealand White rabbits; details: for AII antagonistic effect: doses of 2 and 3.5 mol, cumulative IV boluses, potency order 22, 20, 15, 18, 23, 21, 30, 29; for in vivo antihypertensive potency / activity, relative, in words: anesthetized rabbits, angiotensin II-induced hypertension
Method: The applicant has also established an in vivo assay using anesthetized rabbits in [Onassis 30 Cardiac Institute] which allows us to estimate relative potencies.
The assay is a routine assay and constitutes a convenient method to measure activities of AII antagonists.
In vivo experiments: Adult normotensive male New Zealand White rabbits weighing between 2.5 and 3.3 kg were used in the study following previously described methods.^46,47 In brief, animals were anesthetized by pentobarbitone (30 mg/kg), intubated and mechanically ventilated with 100% oxygen using a respirator for small animals (MD Industries, Mobile, Ala., USA). The tidal volume was 15 ml and the rate was adjusted to keep blood gases within normal rage. Two polyethylene catheters were inserted, one in the carotid artery for continuous blood pressure monitoring via a transducer attached to a multichannel recorder (Nihon-Kohden, Model 6000, Japan) and the other one in the jugular vein for the administrations of solution made by diluting Angiotensin II (AII) (Hypertensin, CIBA) in 5% dextrose at final concentration of 5 µg/ml. Based on previous testing with this rabbit preparation submaximal angiotensin II-dependent hypertension was induced by infusing Angiotensin via a syringe pump (Harvard Apparatus Pump 22, Harvard Apparatus, Natick. Mass., USA) at a constant rate of 0.2 ml/min ([…]). […] Five minutes after the establishment of hypertension, two cumulative IV boluses of each compound (2 and 3.5 mol) were given via an ear vein 20 minutes apart. The blood pressure was monitored for 20 minutes after the second bolus and then angiotensin infusion was halted and blood pressure was recorded for an additional period of 20 minutes until the end of the experiment. Boluses of the same dose of Losartan, as positive control, were used in the same experimental model.
The antihypertensive effect and the degree of potency of these compounds were tested in a preparation of anesthetized rabbits made hypertensive by AII infusion.

[2] = target: T1, human AT1 (Homo sapiens, UniProt P30556); test: In vitro binding, membranes containing AT1 receptor, radioligand [125I]Sar1,Ile8-Angiotensin II
T1 construct: purchased PerkinElmer Life Sciences, Inc., Boston, Mass., USA
T1 sequence (P30556 1-359): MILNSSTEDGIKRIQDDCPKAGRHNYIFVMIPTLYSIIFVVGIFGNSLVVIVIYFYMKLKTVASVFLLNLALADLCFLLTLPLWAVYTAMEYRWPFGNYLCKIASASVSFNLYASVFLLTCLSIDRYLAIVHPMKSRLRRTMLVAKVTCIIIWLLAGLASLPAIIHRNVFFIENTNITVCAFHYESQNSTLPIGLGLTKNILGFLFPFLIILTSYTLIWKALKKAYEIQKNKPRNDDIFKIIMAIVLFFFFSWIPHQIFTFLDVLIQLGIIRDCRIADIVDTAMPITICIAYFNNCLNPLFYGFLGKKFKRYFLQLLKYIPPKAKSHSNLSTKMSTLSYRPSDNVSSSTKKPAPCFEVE

[3] = test system: conscious rabbits made hypertensive by angiotensin II infusion; details: 15 mg mixed with vaseline applied on bare skin
Source text: Conscious rabbits were made hypertensive by angiotensin II infusion. A mixture of 1 5 mgr of our lipophilic angiotensin II receptor blocker compound 20 (or its dialkylated counterpart) with vaseline was applied on bare skin.

[4] = test system: anesthesized rabbits; details: rabbit, in vivo; cited from earlier work
[5] = test system: rat isolated uterus; details: cited from earlier work

Row | Molecule | AII antagonistic effect [1] | in vivo antihypertensive potency / activity, relative, in words [1] | other results
1 | Cc1cn(C(c2ccccc2)(c2ccccc2)c2ccccc2)cn1 [Compound 15, 3-(Triphenylmethyl)-5-methylimidazole] | dose-dependent AII antagonistic effect | – | –
2 | CCCCc1cncn1Cc1ccc(-c2ccccc2-c2nnn(C(c3ccccc3)(c3ccccc3)c3ccccc3Cl)n2)cc1 [Compound 18, 5-Butyl-1-[[2′-[[N-(2-chloro-triphenylmethyl)]tetrazol-5-yl]biphenyl-4-yl]methyl]imidazole] | dose-dependent AII antagonistic effect | more potent; also recorded: less potent compared to 20 and 25 | –
3 | CCCCc1cnc(CO)n1Cc1ccc(-c2ccccc2-c2nnn(C(c3ccccc3)(c3ccccc3)c3ccccc3Cl)n2)cc1 [Compound 20, 5-Butyl-2-hydroxymethyl-1-[[2′-[[N-(2-chloro-triphenylmethyl)]tetrazol-5yl]biphenyl-4-yl]methyl]imidazole] | dose-dependent AII antagonistic effect | highly potent; also recorded: more potent compared to 18; also recorded: most potent | affinity for AT1 receptor, in words, relative to Losartan ([2]; in vitro binding studies): lower affinity; blood pressure lowered by [3]: 20 mmHg; duration of blood pressure lowering [3]: two
4 | Cc1cnc(CO)n1Cc1ccc(-c2ccccc2-c2nnn(C(c3ccccc3)(c3ccccc3)c3ccccc3Cl)n2)cc1 [Compound 21, 5-Methyl-2-hydroxymethyl-1-[[2′-[[N-(2-chloro-triphenylmethyl)]tetrazol-5-yl]biphenyl-4-yl]methyl]imidazole] | dose-dependent AII antagonistic effect | less potent; also recorded: least active | –
5 | CCCCc1cnc(CO)n1Cc1ccc(-c2ccccc2-c2nnn[nH]2)cc1 [Compound 22, 5-butyl-2-hydroxymethyl-1-[[2′-(1H-tetrazol-5-yl)biphenyl-4-yl]methyl]imidazole] | dose-dependent AII antagonistic effect | highly potent; also recorded: more potent compared to 18; also recorded: slightly superior in activity; also recorded: most potent | fold lower affinity for the AT1 receptor than that of Losartan ([2]; from IC50 values): ~3 fold; IC50 ([2]; membranes containing AT1 receptors, competition with 0.1 nM [125I]Sar1,Ile8-Angiotensin II, read-out: IC50, affinity for the AT1 receptor): 53.8 ± 6.4 nM
6 | Cc1cnc(CO)n1Cc1ccc(-c2ccccc2-c2nnn[nH]2)cc1 [Compound 23, 5-methyl-2-hydroxymethyl-1-[[2′-(1H-tetrazol-5-yl)biphenyl-4-yl]methyl]imidazole] | dose-dependent AII antagonistic effect | less potent | –
7 | CCCCc1cncn1Cc1ccc(-c2ccccc2-c2nnnn2Cc2ccccc2)cc1 [Compound 24, 1-[[2′-[(N-benzyl)tetrazol-5-yl]biphenyl-4-yl]methyl]-5-butylimidazole] | – | – | melting point: 69 to 71 °C
8 | CCCCc1cnc(CO)n1Cc1ccc(-c2ccccc2-c2nnnn2Cc2ccccc2)cc1 [Compound 25, 1-[[2′-[(N-benzyl)tetrazol-5-yl]biphenyl-4-yl]methyl]-5-butyl-2hydroxymethyl imidazole] | – | more potent compared to 18; also recorded: most potent | –
9 | c1ccc(Cn2nnnc2-c2ccccc2-c2ccc(Cn3cnc4ccccc43)cc2)cc1 [Compound 28, 1-[[2′-[(N-benzyl)tetrazol-5-yl]biphenyl-4-yl]methyl]benzimidazole] | – | even less potent | melting point: 62 to 64 °C
10 | OCc1nc2ccccc2n1Cc1ccc(-c2ccccc2-c2nnnn2Cc2ccccc2)cc1 [Compound 29, 1-[[2′-[(N-benzyl)tetrazol-5-yl]biphenyl-4-yl]methyl]-2-hydroxymethyl benzimidazole] | dose-dependent AII antagonistic effect | even less potent | melting point: 62 to 63 °C
11 | OCc1nc2ccccc2n1Cc1ccc(-c2ccccc2-c2nnn[nH]2)cc1 [Compound 30, 2-hydroxymethyl-1-[[2′-(1H-tetrazol-5-yl)biphenyl-4-yl]methyl]benzimidazole] | dose-dependent AII antagonistic effect | even less potent; also recorded: least active | –
12 | [Sar^1, Lys^3, Glu^5] ANG II | – | – | activity in anesthesized rabbits [4]: agonist activity; activity in the rat uterus assay [5]: agonist activity
